According to patent US12077503B2, “Substituted cyclic amides and their use as herbicides” (FMC CORPORATION, priority 2015, dated 2024):

What was measured:
Test in all cases: Test C preemergence
Format in all cases: in vivo
soybean (Glycine max) = conditions: for Plant response rating, Soybean: scale 0 to 100, 0 no effect, 100 complete control
In short: (§1)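 Assessment: visual, 13–15 d after treatment, 0 (no effect) to 100 (complete control) relative to controls. Treatment: preemergence to seeds in loam-sand soil, or postemergence to 1- to 4-leaf plants in peat-based medium. Formulation: non-phytotoxic solvent mixture with surfactant.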

[1] = test system: morningglory (Ipomoea coccinea); conditions: for Plant response rating, Morningglory: scale 0 to 100, 0 no effect, 100 complete control
In short: as §1

[2] = test system: waterhemp (common waterhemp, Amaranthus rudis); conditions: for Plant response rating, Waterhemp: scale 0 to 100, 0 no effect, 100 complete control
In short: as §1

[3] = test system: velvetleaf (Abutilon theophrasti); conditions: for Plant response rating, Velvetleaf: scale 0 to 100, 0 no effect, 100 complete control
In short: as §1

[4] = test system: barnyardgrass (Echinochloa crus-galli); conditions: for Plant response rating, Barnyardgrass: scale 0 to 100, 0 no effect, 100 complete control
In short: as §1

[5] = test system: ragweed (common ragweed, Ambrosia elatior); conditions: for Plant response rating, Ragweed: scale 0 to 100, 0 no effect, 100 complete control
In short: as §1

corn (Zea mays) = conditions: for Plant response rating, Corn: scale 0 to 100, 0 no effect, 100 complete control
In short: as §1

[6] = test system: wheat (winter wheat, Triticum aestivum); conditions: for Plant response rating, Wheat: scale 0 to 100, 0 no effect, 100 complete control
In short: as §1

[7] = test system: nutsedge, yellow (yellow nutsedge, Cyperus esculentus); conditions: for Plant response rating, Nutsedge, Yellow: scale 0 to 100, 0 no effect, 100 complete control
In short: as §1

[8] = test system: Galium (catchweed bedstraw, Galium aparine); conditions: for Plant response rating, Galium: scale 0 to 100, 0 no effect, 100 complete control
In short: as §1

[9] = test system: blackgrass (Alopecurus myosuroides); conditions: for Plant response rating, Blackgrass: scale 0 to 100, 0 no effect, 100 complete control
In short: as §1

[10] = test system: crabgrass, large (large crabgrass, Digitaria sanguinalis); conditions: for Plant response rating, Crabgrass, Large: scale 0 to 100, 0 no effect, 100 complete control
In short: as §1

[11] = test system: ryegrass, Italian (Italian ryegrass, Lolium multiflorum); conditions: for Plant response rating, Ryegrass, Italian: scale 0 to 100, 0 no effect, 100 complete control
In short: as §1

[12] = test system: lambsquarters (Chenopodium album); conditions: for Plant response rating, Lambsquarters: scale 0 to 100, 0 no effect, 100 complete control
In short: as §1

[13] = test system: foxtail, giant (giant foxtail, Setaria faberii); conditions: for Plant response rating, Foxtail, Giant: scale 0 to 100, 0 no effect, 100 complete control
In short: as §1

[14] = test system: pigweed (Amaranthus retroflexus); conditions: for Plant response rating, Pigweed: scale 0 to 100, 0 no effect, 100 complete control
In short: as §1

[15] = test system: oilseed rape (Brassica napus); conditions: for Plant response rating, Oilseed Rape: scale 0 to 100, 0 no effect, 100 complete control
In short: as §1

[16] = 31 g ai/ha, 0 is no effect, 100 is complete control

SMILES: CN1CC(c2cccc(OC(F)F)c2)C(C(=O)Nc2ccccc2F)C1=O (centres unmarked) [Compound 618]
- Plant response rating (scale of 0 to 100), Soybean (soybean (Glycine max); [16]): 0
- Plant response rating, Soybean (soybean (Glycine max); 62 g ai/ha): 10
- Plant response rating, Soybean (soybean (Glycine max); 125 g ai/ha): 0
- Plant response rating, Soybean (soybean (Glycine max); 250 g ai/ha): 0
- Plant response rating (scale of 0 to 100), Morningglory [1, 16]: 0
- Plant response rating, Morningglory ([1]; 62 g ai/ha): 0
- Plant response rating, Morningglory ([1]; 125 g ai/ha): 10
- Plant response rating, Morningglory ([1]; 250 g ai/ha): 5
- Plant response rating (scale of 0 to 100), Waterhemp [2, 16]: 60
- Plant response rating, Waterhemp ([2]; 62 g ai/ha): 60
- Plant response rating, Waterhemp ([2]; 125 g ai/ha): 65
- Plant response rating, Waterhemp ([2]; 250 g ai/ha): 85
- Plant response rating (scale of 0 to 100), Velvetleaf [3, 16]: 0
- Plant response rating, Velvetleaf ([3]; 62 g ai/ha): 5
- Plant response rating, Velvetleaf ([3]; 125 g ai/ha): 55
- Plant response rating, Velvetleaf ([3]; 250 g ai/ha): 60
- Plant response rating (scale of 0 to 100), Barnyardgrass [4, 16]: 95
- Plant response rating, Barnyardgrass ([4]; 62 g ai/ha): 95
- Plant response rating, Barnyardgrass ([4]; 125 g ai/ha): 95
- Plant response rating, Barnyardgrass ([4]; 250 g ai/ha): 98
- Plant response rating (scale of 0 to 100), Ragweed [5, 16]: 40
- Plant response rating, Ragweed ([5]; 62 g ai/ha): 40
- Plant response rating, Ragweed ([5]; 125 g ai/ha): 65
- Plant response rating, Ragweed ([5]; 250 g ai/ha): 80
- Plant response rating (scale of 0 to 100), Corn (corn (Zea mays); [16]): 30
- Plant response rating, Corn (corn (Zea mays); 62 g ai/ha): 50
- Plant response rating, Corn (corn (Zea mays); 125 g ai/ha): 75
- Plant response rating, Corn (corn (Zea mays); 250 g ai/ha): 85
- Plant response rating (scale of 0 to 100), Wheat [6, 16]: 20
- Plant response rating, Wheat ([6]; 62 g ai/ha): 30
- Plant response rating, Wheat ([6]; 125 g ai/ha): 75
- Plant response rating, Wheat ([6]; 250 g ai/ha): 80
- Plant response rating (scale of 0 to 100), Nutsedge, Yellow [7, 16]: 0
- Plant response rating, Nutsedge, Yellow ([7]; 62 g ai/ha): 0
- Plant response rating, Nutsedge, Yellow ([7]; 125 g ai/ha): 0
- Plant response rating, Nutsedge, Yellow ([7]; 250 g ai/ha): 10
- Plant response rating (scale of 0 to 100), Galium [8, 16]: 0
- Plant response rating, Galium ([8]; 62 g ai/ha): 0
- Plant response rating, Galium ([8]; 125 g ai/ha): 85
- Plant response rating, Galium ([8]; 250 g ai/ha): 90
- Plant response rating (scale of 0 to 100), Blackgrass [9, 16]: 0
- Plant response rating, Blackgrass ([9]; 62 g ai/ha): 10
- Plant response rating, Blackgrass ([9]; 125 g ai/ha): 60
- Plant response rating, Blackgrass ([9]; 250 g ai/ha): 80
- Plant response rating (scale of 0 to 100), Crabgrass, Large [10, 16]: 100
- Plant response rating, Crabgrass, Large ([10]; 62 g ai/ha): 100
- Plant response rating, Crabgrass, Large ([10]; 125 g ai/ha): 100
- Plant response rating, Crabgrass, Large ([10]; 250 g ai/ha): 100
- Plant response rating (scale of 0 to 100), Ryegrass, Italian [11, 16]: 45
- Plant response rating, Ryegrass, Italian ([11]; 62 g ai/ha): 50
- Plant response rating, Ryegrass, Italian ([11]; 125 g ai/ha): 45
- Plant response rating, Ryegrass, Italian ([11]; 250 g ai/ha): 55
- Plant response rating (scale of 0 to 100), Lambsquarters [12, 16]: 50
- Plant response rating, Lambsquarters ([12]; 62 g ai/ha): 50
- Plant response rating, Lambsquarters ([12]; 125 g ai/ha): 70
- Plant response rating, Lambsquarters ([12]; 250 g ai/ha): 75
- Plant response rating (scale of 0 to 100), Foxtail, Giant [13, 16]: 90
- Plant response rating, Foxtail, Giant ([13]; 62 g ai/ha): 90
- Plant response rating, Foxtail, Giant ([13]; 125 g ai/ha): 90
- Plant response rating, Foxtail, Giant ([13]; 250 g ai/ha): 95
- Plant response rating (scale of 0 to 100), Pigweed [14, 16]: 40
- Plant response rating, Pigweed ([14]; 62 g ai/ha): 60
- Plant response rating, Pigweed ([14]; 125 g ai/ha): 60
- Plant response rating, Pigweed ([14]; 250 g ai/ha): 75
- Plant response rating (scale of 0 to 100), Oilseed Rape [15, 16]: 60
- Plant response rating, Oilseed Rape ([15]; 62 g ai/ha): 85
- Plant response rating, Oilseed Rape ([15]; 125 g ai/ha): 90
- Plant response rating, Oilseed Rape ([15]; 250 g ai/ha): 90
